Assay [1] has as its system THLE-2 normal cell line. Kind of assay: Cytotoxicity on normal epithelial cells THLE-2 (selectivity index). The class given is cell-based. As to conditions: for IC50: Homo sapiens, THLE-2, normal cell line, mean ± SD; for SI (selectivity index): THLE-2 versus HCT-116. As to the method:
(§1) Diverse human cancer cell lines: liver cancer cells (HepG2), colon cancer cell line (HCT-116), and breast cancer cell line (MCF-7) were brought from VACSERA Tissue Culture Unit (Giza, Egypt). RPMI-1640 media enhanced with 10% fetal bovine serum and […] gentamycin were employed to culture the cells. The cells were incubated at 37 °C with 5% CO2. To determine the cytotoxic activity, cells were treated with various doses (0–100 µg/ mL) of B. velezensis DM extract or Doxorubicin, and their viability compared to untreated controls was assessed. Compound (1) cytotoxic potential was evaluated against HCT-116 as well as normal epithelial cells (THLE2) to calculate the selectivity index (SI) as formerly depicted.
(§2) IC50 was calculated by the Graph Pad Prism (version 8, San Diego, CA, USA) (n = 3 replicates). Data are presented as mean ± SD.

Assay [2] has as its system HCT-116. Kind of assay: MTT cytotoxicity on colon cancer cell line HCT-116. The class given is cell-based. The conditions noted are these: Homo sapiens, mean ± SD. The protocol:
as §1, §2

Assay [3] can be described thus: Antioxidant DPPH assay. The conditions noted are these: mean ± SD. The protocol: Antioxidant DPPH assay: To inspect the antioxidant potential of B. velezensis DM extract, a methodology reported by Nahar et al. was used compared to Trolox. IC50 was calculated by the Graph Pad Prism (version 8, San Diego, CA, USA) (n = 3 replicates). Data are presented as mean ± SD.
(In general: The DPPH test is a chemical assay of radical scavenging.)

A short description of assay [4]: Antioxidant ABTS assay. As to conditions: mean ± SD. The protocol:
Antioxidant ABTS assay: the capacity of B. velezensis DM extract to scavenge ABTS radical cations was assessed compared to Quercetin at a range of concentrations, including 300, 150, 75, 25, and 10 µg/ mL [38].
as §2

The mark [5] stands for this setting: compound (1) experiment, read-out: IC50 HCT-116 (Table 4).

Structures are written as SMILES. Converted amounts (≈) assume the structure as drawn. “And” between values parts separate entries of the source, which are not always exact repeats. Identical values can stand only once. Like-named read-outs stand apart in the source and are kept apart here.

With `CNC=C(CC(O)C(O)CO)NC` (stereo not drawn) [Compound (1), 5,6-di(methylamino)hex-5-ene-1,2,3-triol], the IC50 stood at 68.7 ± 3.34 µg/mL (≈ 361 µM) in assay [1] and 27 ± 1.85 µg/mL (≈ 142 µM) in assay [2] (setting [5]). In addition, in assay [1], the “SI (selectivity index)” value was 2.5 and 2.54.
Take `COc1cccc2c1C(=O)c1c(O)c3c(c(O)c1C2=O)C[C@@](O)(C(=O)CO)C[C@@H]3O[C@H]1C[C@H](N)[C@H](O)[C@H](C)O1` [Doxorubicin (DOX), Doxorubicin]: the IC50 in assay [1] stood at 17.4 ± 1.25 µg/mL (≈ 32.1 µM); in assay [2] (MTT, 0–100 µg/mL, n = 3, read-out: IC50 HCT-116 (Table 3)) it was 4.82 ± 0.18 µg/mL (≈ 8.87 µM); in assay [2] (setting [5]), 11.7 ± 0.4 µg/mL (≈ 21.5 µM). The “SI (selectivity index)” value in assay [1] was 1.49.
In the case of `Cc1c(C)c2c(c(C)c1O)CCC(C)(C(=O)O)O2` (stereo not drawn) [Trolox], the “DPPH (IC50)” value in assay [3] came out at 113.31 ± 4.2 µg/mL.
In the case of `O=c1c(O)c(-c2ccc(O)c(O)c2)oc2cc(O)cc(O)c12` [Quercetin], the “ABTS (IC50)” value in assay [4] was 42.13 ± 1.92 µg/mL.

In general, IC50 refers to the midpoint of a concentration-inhibition curve.
